Each structure is given as a SMILES string.

In the test the target is T1, human μ-opiate receptor (Homo sapiens, UniProt P35372).
T1 construct: purchased Nen company, Zaventem, Belgium RB-HOM; host or cells: CHO-K1 cells (membrane preparation)
T1 sequence (P35372 whole entry): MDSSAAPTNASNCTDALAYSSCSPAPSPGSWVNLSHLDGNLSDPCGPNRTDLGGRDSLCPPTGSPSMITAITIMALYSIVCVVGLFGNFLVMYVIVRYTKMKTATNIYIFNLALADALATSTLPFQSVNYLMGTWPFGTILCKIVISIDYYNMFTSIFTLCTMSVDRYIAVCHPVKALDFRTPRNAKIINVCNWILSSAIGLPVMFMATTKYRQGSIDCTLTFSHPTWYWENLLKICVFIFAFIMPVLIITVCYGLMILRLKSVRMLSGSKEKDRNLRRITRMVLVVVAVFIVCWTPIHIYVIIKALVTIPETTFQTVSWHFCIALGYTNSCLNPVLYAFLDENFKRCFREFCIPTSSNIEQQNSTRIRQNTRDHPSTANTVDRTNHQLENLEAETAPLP
Kind of test: Affinity for the human μ-opiate receptor ([3H]-naloxone displacement, SPA, CHO-K1 membrane preparation). The settings on record: test substance 1 μmole/l; displacement of 1 nmole/l [3H]-naloxone; percentage inhibition of the specific binding; read-out: μ-opioid receptor, % inhibition [1 μM]. On the procedure:
Method for Determining the Affinity for the Human μ-Opiate Receptor
The receptor affinity for the human μ-opiate receptor is determined in a homogeneous batch in microtiter plates. For this purpose dilution series of the substances to be tested are incubated for 90 minutes at room temperature with a receptor membrane preparation (15-40 μg protein/250 μl incubation batch) of CHO-K1 cells, which express the human μ-opiate receptor (RB-HOM receptor membrane preparation from the Nen company, Zaventem, Belgium), in the presence of 1 nmole/l of the radioactive ligand [^3H]-naloxone (NET719, Nen company, Zaventem, Belgium) and 1 mg WGA-SPA beads (wheat germ agglutinin SPA beads from Amersham/Pharmacia, Freiburg, Germany) in a total volume of 250 μl. 50 mmole/l of Tris-HCl supplemented with 0.05% sodium azide and with 0.06% bovine serum albumin is used as incubation buffer. In order to determine the non-specific binding, 25 μmole/l of naloxone is additionally added. After the end of the 90 minutes' incubation time the microtiter plates are centrifuged for 20 minutes at 1000 g and the radioactivity is measured in a beta counter (Microbeta-Trilux, PerkinElmer Wallac, Freiburg, Germany). The percentage displacement of the radioactive ligand from its binding to the human μ-opiate receptor at a concentration of the test substances of 1 μmole/l is determined and is given as percentage inhibition of the specific binding.
In general, inhibition refers to the change of the read-out against control, counted positive when it falls. Take `CN(C)C(c1ccc(Cl)cc1)C1CCC(CC(c2nc(Cc3ccccc3)c(N3CCC(Cc4ccccc4)CC3)o2)N2CCN(Cc3ccccc3)CC2)CC1` (stereo not drawn) [compound 62, [{4-[2-[4-benzyl-5-(4-benzyl-piperidin-1-yl)-oxazol-2-yl]-2-(4-benzyl-piperazin-1-yl)-ethyl]-cyclohexyl}-(4-chlorophenyl)-methyl]-dimethylamine]: the inhibition at 1 µM is 87%.

With `CN(C)C(c1ccc(Cl)cc1)C1CCC(CC(c2nc(Cc3ccccc3)c(N3CCN(Cc4ccccc4)CC3)o2)N2CCN(Cc3ccccc3)CC2)CC1` (stereo not drawn) [compound 63, [{4-[2-[4-benzyl-5-(4-benzylpiperazin-1-yl)-oxazol-2-yl]-2-(4-benzyl-piperazin-1-yl)-ethyl]-cyclohexyl}-(4-chlorophenyl)-methyl]-dimethylamine], the inhibition at 1 µM was 78%.

In the case of `CC1CCN(c2oc(C(CC3CCC(C(c4ccc(Cl)cc4)N(C)C)CC3)N3CCN(Cc4ccccc4)CC3)nc2Cc2ccccc2)CC1` (stereo not drawn) [compound 64, [{4-[2-[4-benzyl-5-(4-methylpiperidin-1-yl)-oxazol-2-yl]-2-(4-benzyl-piperazin-1-yl)-ethyl]-cyclohexyl}-(4-chlorophenyl)-methyl]-dimethylamine], the inhibition at 1 µM was determined as 69%.

Turning to `CC1CCN(c2oc(C(CC3CCC(C(c4ccc(F)cc4)N(C)C)CC3)N3CCCCC3)nc2Cc2ccccc2)CC1` (stereo not drawn) [compound 65, [(4-{2-[4-benzyl-5-(4-methylpiperidin-1-yl)-oxazol-2-yl]-2-piperidin-1-yl-ethyl}-cyclohexyl)-(4-fluorophenyl)-methyl]-dimethylamine], the inhibition at 1 µM came out at 61%.

Turning to `CN(Cc1ccccc1)c1oc(C(CC2CCC(C(c3ccc(F)cc3)N(C)C)CC2)N2CCCCC2)nc1Cc1ccccc1` (stereo not drawn) [compound 66, Benzyl-[4-benzyl-2-(2-{4-[dimethylamino-(4-fluorophenyl)-methyl]-cyclohexyl}-1-piperidin-1-yl-ethyl)-oxazol-5-yl]-methylamine], the inhibition at 1 µM was 65%.

On to `CCN(CC)C(CC1CCC(C(c2ccc(F)cc2)N(C)C)CC1)c1nc(Cc2ccccc2)c(N2CCC(Cc3ccccc3)CC2)o1` (stereo not drawn) [compound 67, (1-[4-benzyl-5-(4-benzyl-piperidin-1-yl)-oxazol-2-yl]-2-{4-[dimethylamino-(4-fluorophenyl)-methyl]-cyclohexyl}-ethyl)-diethylamine], for which the inhibition at 1 µM is 64%.

On to `CCN(CC)C(CC1CCC(C(c2ccc(F)cc2)N(C)C)CC1)c1nc(Cc2ccccc2)c(N2CCN(Cc3ccccc3)CC2)o1` (stereo not drawn) [compound 68, (1-[4-benzyl-5-(4-benzyl-piperazin-1-yl)-oxazol-2-yl]-2-{4-[dimethylamino-(4-fluorophenyl)-methyl]-cyclohexyl}-ethyl)-diethylamine], for which the inhibition at 1 µM came out at 60%.

On to `CCN(CC)C(CC1CCC(C(c2ccc(F)cc2)N(C)C)CC1)c1nc(Cc2ccccc2)c(N2CCC(C)CC2)o1` (stereo not drawn) [compound 69, (1-[4-benzyl-5-(4-methylpiperidin-1-yl)-oxazol-2-yl]-2-{4-[dimethylamino-(4-fluorophenyl)-methyl]-cyclohexyl}-ethyl)-diethylamine], for which the inhibition at 1 µM amounted to 82%.

With `CCN(CC)C(CC1CCC(C(c2ccc(F)cc2)N(C)C)CC1)c1nc(Cc2ccccc2)c(N(C)Cc2ccccc2)o1` (stereo not drawn) [compound 70, Benzyl-[4-benzyl-2-(1-diethylamino-2-{4-[dimethylamino-(4-fluorophenyl)-methyl]-cyclohexyl}-ethyl)-oxazol-5-yl]-methylamine], the inhibition at 1 µM is 60%.

Regarding `CC1CCN(c2oc(C(CC3CCC(C(c4ccc(F)cc4)N(C)C)CC3)N3CCN(Cc4ccccc4)CC3)nc2Cc2ccccc2)CC1` (stereo not drawn) [compound 71, [{4-[2-[4-benzyl-5-(4-methylpiperidin-1-yl)-oxazol-2-yl]-2-(4-benzyl-piperazin-1-yl)-ethyl]-cyclohexyl}-(4-fluorophenyl)-methyl]-dimethylamine], the inhibition at 1 µM was 67%.

Turning to `CN(C)C(c1cccs1)C1CCC(CC(c2nc(Cc3ccccc3)c(N3CCC(Cc4ccccc4)CC3)o2)N2CCCCC2)CC1` (stereo not drawn) [compound 72, [(4-{2-[4-benzyl-5-(4-benzyl-piperidin-1-yl)-oxazol-2-yl]-2-piperidin-1-yl-ethyl}-cyclohexyl)-thiophen-2-yl-methyl]-dimethylamine], the inhibition at 1 µM was found to be 69%.

For `CN(C)C(c1cccs1)C1CCC(CC(c2nc(Cc3ccccc3)c(N3CCN(Cc4ccccc4)CC3)o2)N2CCCCC2)CC1` (stereo not drawn) [compound 73, [(4-{2-[4-benzyl-5-(4-benzyl-piperazin-1-yl)-oxazol-2-yl]-2-piperidin-1-yl-ethyl}-cyclohexyl)-thiophen-2-yl-methyl]-dimethylamine], the inhibition at 1 µM was determined as 94%.

Turning to `CC1CCN(c2oc(C(CC3CCC(C(c4cccs4)N(C)C)CC3)N3CCCCC3)nc2Cc2ccccc2)CC1` (stereo not drawn) [compound 74, [(4-{2-[4-benzyl-5-(4-methylpiperidin-1-yl)-oxazol-2-yl]-2-piperidin-1-yl-ethyl}-cyclohexyl)-thiophen-2-yl-methyl]-dimethylamine], the inhibition at 1 µM was found to be 79%.

On to `CN(Cc1ccccc1)c1oc(C(CC2CCC(C(c3cccs3)N(C)C)CC2)N2CCCCC2)nc1Cc1ccccc1` (stereo not drawn) [compound 75, Benzyl-(4-benzyl-2-{2-[4-(dimethylaminothiophen-2-yl-methyl)-cyclohexyl]-1-piperidin-1-yl-ethyl}-oxazol-5-yl)-methylamine], for which the inhibition at 1 µM worked out at 90%.

Regarding `CN(C)C(c1cccs1)C1CCC(CC(c2nc(Cc3ccccc3)c(N3CCN(c4ccccc4)CC3)o2)N2CCCCC2)CC1` (stereo not drawn) [compound 76, [(4-{2-[4-benzyl-5-(4-phenyl-piperazin-1-yl)-oxazol-2-yl]-2-piperidin-1-yl-ethyl}-cyclohexyl)-thiophen-2-yl-methyl]-dimethylamine], the inhibition at 1 µM was determined as 94%.

In the case of `CCN(CC)C(CC1CCC(C(c2cccs2)N(C)C)CC1)c1nc(Cc2ccccc2)c(N2CCC(Cc3ccccc3)CC2)o1` (stereo not drawn) [compound 77, {1-[4-benzyl-5-(4-benzyl-piperidin-1-yl)-oxazol-2-yl]-2-[4-(dimethylamino-thiophen-2-yl-methyl)-cyclohexyl]-ethyl}-diethylamine], the inhibition at 1 µM came out at 91%.

Regarding `CCN(CC)C(CC1CCC(C(c2cccs2)N(C)C)CC1)c1nc(Cc2ccccc2)c(N2CCN(Cc3ccccc3)CC2)o1` (stereo not drawn) [compound 78, {1-[4-benzyl-5-(4-benzyl-piperazin-1-yl)-oxazol-2-yl]-2-[4-(dimethylamino-thiophen-2-yl-methyl)-cyclohexyl]-ethyl}-diethylamine], the inhibition at 1 µM was found to be 100%.

Take `CCN(CC)C(CC1CCC(C(c2cccs2)N(C)C)CC1)c1nc(Cc2ccccc2)c(N2CCC(C)CC2)o1` (stereo not drawn) [compound 79, {1-[4-benzyl-5-(4-methylpiperidin-1-yl)-oxazol-2-yl]-2-[4-(dimethylamino-thiophen-2-yl-methyl)-cyclohexyl]-ethyl}-diethylamine]: the inhibition at 1 µM amounted to 97%.

`CCN(CC)C(CC1CCC(C(c2cccs2)N(C)C)CC1)c1nc(Cc2ccccc2)c(N(C)Cc2ccccc2)o1` (stereo not drawn) [compound 80, Benzyl-(4-benzyl-2-{1-diethylamino-2-[4-(dimethylaminothiophen-2-yl-methyl)-cyclohexyl]-ethyl)-oxazol-5-yl)-methylamine]: the inhibition at 1 µM came to 93%.

`CN(C)C(c1cccs1)C1CCC(CC(c2nc(Cc3ccccc3)c(N3CCC(Cc4ccccc4)CC3)o2)N2CCN(Cc3ccccc3)CC2)CC1` (stereo not drawn) [compound 81, ({4-[2-[4-benzyl-5-(4-benzyl-piperidin-1-yl)-oxazol-2-yl]-2-(4-benzyl-piperazin-1-yl)-ethyl]-cyclohexyl}-thiophen-2-yl-methyl)-dimethylamine]: the inhibition at 1 µM came to 81%.

As for `CN(C)C(c1cccs1)C1CCC(CC(c2nc(Cc3ccccc3)c(N3CCN(Cc4ccccc4)CC3)o2)N2CCN(Cc3ccccc3)CC2)CC1` (stereo not drawn) [compound 82, ({4-[2-[4-benzyl-5-(4-benzylpiperazin-1-yl)-oxazol-2-yl]-2-(4-benzyl-piperazin-1-yl)-ethyl]-cyclohexyl}-thiophen-2-yl-methyl)-dimethylamine], the inhibition at 1 µM amounted to 83%.

For the compound `CC1CCN(c2oc(C(CC3CCC(C(c4cccs4)N(C)C)CC3)N3CCN(Cc4ccccc4)CC3)nc2Cc2ccccc2)CC1` (stereo not drawn) [compound 83, ({4-[2-[4-benzyl-5-(4-methylpiperidin-1-yl)-oxazol-2-yl]-2-(4-benzyl-piperazin-1-yl)-ethyl]-cyclohexyl}-thiophen-2-yl-methyl)-dimethylamine], the inhibition at 1 µM is 97%.

As to `CN(Cc1ccccc1)c1oc(C(CC2CCC(C(c3cccs3)N(C)C)CC2)N2CCN(Cc3ccccc3)CC2)nc1Cc1ccccc1` (stereo not drawn) [compound 84, Benzyl-(4-benzyl-2-{1-(4-benzyl-piperazin-1-yl)-2-[4-(dimethylamino-thiophen-2-yl-methyl)-cyclohexyl]-ethyl}-oxazol-5-yl)-methylamine], the inhibition at 1 µM worked out at 88%.

For the compound `CN(C)C(c1cccs1)C1CCC(CC(c2nc(Cc3ccccc3)c(N3CCN(c4ccccc4)CC3)o2)N2CCN(Cc3ccccc3)CC2)CC1` (stereo not drawn) [compound 85, ({4-[2-[4-benzyl-5-(4-phenyl-piperazin-1-yl)-oxazol-2-yl]-2-(4-benzyl-piperazin-1-yl)-ethyl]-cyclohexyl}-thiophen-2-yl-methyl)-dimethylamine], the inhibition at 1 µM amounted to 91%.

Source of the values: patent US7608619B2, “Substituted oxazole compounds with analgesic activity” (Gruenenthal GmbH, priority 2005, dated 2009).
